Reference: patent US10087172B2, “Compounds and their methods of use” (AGIOS PHARMACEUTICALS, INC, priority 2012, dated 2018)
pIC50: −log10 of the molar value.

Biological target: T1, glutaminase (GAC) (Homo sapiens, UniProt O94925)
T1 sequence (O94925 55-598 isoform O94925-3 limits assumed): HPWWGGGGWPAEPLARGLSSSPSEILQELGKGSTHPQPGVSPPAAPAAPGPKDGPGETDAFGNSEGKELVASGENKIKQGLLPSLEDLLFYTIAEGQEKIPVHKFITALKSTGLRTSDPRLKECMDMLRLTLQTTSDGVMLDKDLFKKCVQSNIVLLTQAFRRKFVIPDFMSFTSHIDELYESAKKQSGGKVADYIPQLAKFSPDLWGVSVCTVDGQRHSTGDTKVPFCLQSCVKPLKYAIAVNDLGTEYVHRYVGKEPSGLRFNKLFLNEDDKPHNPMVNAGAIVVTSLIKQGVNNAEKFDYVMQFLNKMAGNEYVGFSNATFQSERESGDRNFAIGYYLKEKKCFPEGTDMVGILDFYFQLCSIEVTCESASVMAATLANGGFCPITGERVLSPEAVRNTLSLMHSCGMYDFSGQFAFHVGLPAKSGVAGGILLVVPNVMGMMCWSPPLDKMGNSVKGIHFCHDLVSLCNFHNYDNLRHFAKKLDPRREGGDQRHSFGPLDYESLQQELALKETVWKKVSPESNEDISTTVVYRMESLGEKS
Experiment: Glutaminase (GAC) coupled endpoint enzymatic assay (glutamate dehydrogenase/diaphorase/resazurin, Ex544/Em590)
Type: biochemical
Conditions: inhibition of glutaminase, tested in an assay of Example A or Example B; class symbols A-E
Summary of the method: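 Glutamate formed by GAC is coupled through GDH and diaphorase to resorufin fluorescence (Ex544/Em590), read after an SDS stop. Buffer pH 8.5 holds phosphate; glutamine is at Km, with 1.56 mM NAD in the enzyme mix. Compound and enzyme mix are preincubated 60 min at room temperature before substrate addition.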

pIC50	SMILES
5.70 to 6.00	O=C(CC1CCCO1)Nc1nnc([C@H]2CCC[C@H](c3nnc(NC(=O)CC4CCCO4)s3)C2)s1 (stereo partly drawn) [Compound 77, N,N′-(5,5′-((1S,3S)-cyclohexane-1,3-diyl)bis(1,3,4-thiadiazole-5,2-diyl))bis(2-(tetrahydrofuran-2-yl)acetamide)]
6.30 to 7.00	O=C(CC1CC1)Nc1nnc([C@H]2CCC[C@H](c3nnc(NC(=O)CC4CC4)s3)C2)s1 [Compound 49, N,N′-(5,5′-((1S,3S)-cyclohexane-1,3-diyl)bis(1,3,4-thiadiazole-5,2-diyl))bis(2-cyclopropylacetamide)]
> 7.00	COc1cccc(CC(=O)Nc2nnc([C@H]3CCC[C@H](c4nnc(NC(=O)Cc5cccc(OC)n5)s4)C3)s2)n1 (single isomer, unassigned) [Compound 84]
> 7.00	Cc1cc(CC(=O)Nc2nnc([C@H]3CCC[C@H](c4nnc(NC(=O)Cc5cc(C)no5)s4)C3)s2)on1 [Compound 30, N,N′-(5,5′-((1S,3S)-cyclohexane-1,3-diyl)bis(1,3,4-thiadiazole-5,2-diyl))bis(2-(3-methylisoxazol-5-yl)acetamide)]
> 7.00	O=C(Cc1ccccn1)Nc1nnc([C@H]2CC[C@H](c3nnc(NC(=O)Cc4ccccn4)s3)C2)s1 [Compound 309]
> 7.00	O=C(Cc1ccc2c(c1)OCO2)Nc1nnc([C@H]2CCC[C@H](c3nnc(NC(=O)Cc4ccc5c(c4)OCO5)s3)C2)s1 [Cmpd 86]
> 7.00	O=C(Nc1nnc([C@H]2CC[C@H](c3nnc(NC(=O)[C@H](O)c4ccccc4)s3)C2)s1)[C@H](O)c1ccccc1 [Compound 382]
> 7.00	O=C(Cc1cccc(N2CC(F)(F)C2)n1)Nc1nnc([C@H]2CC[C@H](c3nnc(NC(=O)[C@@H](O)c4ccccc4)s3)C2)s1 [Compound 377, (S)—N-(5-((1S,3S)-3-(5-(2-(6-(3,3-difluoroazetidin-1-yl)pyridin-2-yl)acetamido)-1,3,4-thiadiazol-2-yl)cyclopentyl)-1,3,4-thiadiazol-2-yl)-2-hydroxy-2-phenylacetamide]
> 7.00	O=C(Cc1cccc(OC(F)(F)F)c1)Nc1nnc([C@H]2CC[C@H](c3nnc(NC(=O)[C@@H](O)c4ccccc4)s3)C2)s1 [Compound 374, (S)-2-hydroxy-2-phenyl-N-(5-((1S,3S)-3-(5-(2-(3-(trifluoromethoxy)phenyl)acetamido)-1,3,4-thiadiazol-2-yl)cyclopentyl)-1,3,4-thiadiazol-2-yl)acetamide]
6.30 to 7.00	O=C(Cc1ccccc1Cl)Nc1nnc([C@H]2CCC[C@H](c3nnc(NC(=O)Cc4ccccc4Cl)s3)C2)s1 [Compound 51, N,N′-(5,5′-((1S,3S)-cyclohexane-1,3-diyl)bis(1,3,4-thiadiazole-5,2-diyl))bis(2-(2-chlorophenyl)acetamide)]
> 7.00	O=C(Cc1ccc(N2CC(F)C2)cn1)Nc1nnc([C@H]2CCC[C@H](c3nnc(NC(=O)Cc4ccc(N5CC(F)C5)cn4)s3)C2)s1 [Compound 357]
> 7.00	O=C(Cc1ccc(N2CC(F)C2)cn1)Nc1nnc([C@H]2CC[C@H](c3nnc(NC(=O)Cc4ccc(N5CC(F)C5)cn4)s3)C2)s1 [Compound 363]
> 7.00	O=C(Cc1cccc(N2CC(F)(F)C2)n1)Nc1nnc([C@H]2CCC[C@H](c3nnc(NC(=O)[C@H](O)c4ccccc4)s3)C2)s1 [Compound 369]
> 7.00	O=C(Cc1cc(OC(F)F)ccn1)Nc1nnc([C@H]2CCC[C@H](c3nnc(NC(=O)Cc4cc(OC(F)F)ccn4)s3)C2)s1 [Compound 356, N,N′-(5,5′-((1S,3S)-cyclohexane-1,3-diyl)bis(1,3,4-thiadiazole-5,2-diyl))bis(2-(4-(difluoromethoxy)pyridin-2-yl)acetamide)]
> 7.00	N#Cc1cccc(CC(=O)Nc2nnc([C@H]3CCC[C@H](c4nnc(NC(=O)Cc5cccc(C6CCCNC6)c5)s4)C3)s2)c1 (stereo partly drawn) [Compound 367, 2-(3-cyanophenyl)-N-(5-((1S,3S)-3-(5-(2-(3-(piperidin-3-yl)phenyl)acetamido)-1,3,4-thiadiazol-2-yl)cyclohexyl)-1,3,4-thiadiazol-2-yl)acetamide]
> 7.00	O=C(Cc1cccc(OC(F)(F)F)c1)Nc1nnc([C@H]2CCC[C@H](c3nnc(NC(=O)C(CO)c4ccccc4)s3)C2)s1 (stereo partly drawn) [Compound 389, 3-hydroxy-2-phenyl-N-(5-((1S,3S)-3-(5-(2-(3-(trifluoromethoxy)phenyl)acetamido)-1,3,4-thiadiazol-2-yl)cyclohexyl)-1,3,4-thiadiazol-2-yl)propanamide]

pIC50	SMILES
> 7.00	CC(=O)N(C)c1ccc(CC(=O)Nc2nnc([C@H]3CCC[C@H](c4nnc(NC(=O)Cc5ccc(N(C)C(C)=O)cn5)s4)C3)s2)nc1 [Compound 368]
> 7.00	CC(=O)Nc1ccc(CC(=O)Nc2nnc([C@H]3CCC[C@H](c4nnc(NC(=O)Cc5ccc(NC(C)=O)cc5)s4)C3)s2)cc1 (single isomer, unassigned) [Compound 106]
6.30 to 7.00	CC(=O)Nc1ccccc1CC(=O)Nc1nnc([C@H]2CCC[C@H](c3nnc(NC(=O)Cc4ccccc4NC(C)=O)s3)C2)s1 [Compound 55, N,N′-(5,5′-((1S,3S)-cyclohexane-1,3-diyl)bis(1,3,4-thiadiazole-5,2-diyl))bis(2-(2-acetamidophenyl)acetamide)]
6.00 to 6.30	CC(C)(CO)C(=O)Nc1nnc([C@H]2CCC[C@H](c3nnc(NC(=O)C(C)(C)CO)s3)C2)s1 [Compound 63, N,N′-(5,5′-((1S,3S)-cyclohexane-1,3-diyl)bis(1,3,4-thiadiazole-5,2-diyl))bis(3-hydroxy-2,2-dimethylpropanamide)]
6.30 to 7.00	CC(C)Oc1cccc(CC(=O)Nc2nnc([C@H]3CCC[C@H](c4nnc(NC(=O)Cc5cccc(OC(C)C)c5)s4)C3)s2)c1 [Compound 91, N,N′-(5,5′-((1S,3S)-cyclohexane-1,3-diyl)bis(1,3,4-thiadiazole-5,2-diyl))bis(2-(3-isopropoxyphenyl)acetamide)]
> 7.00	O=C(Cc1cccc(N2CC(F)C2)c1)Nc1nnc([C@H]2CCC[C@H](c3nnc(NC(=O)Cc4cccc(N5CC(F)C5)c4)s3)C2)s1 [Compound 348]
> 7.00	COc1ccc(CC(=O)Nc2nnc([C@H]3CCC[C@H](c4nnc(NC(=O)Cc5cccc(N6CC(F)(F)C6)n5)s4)C3)s2)cn1 [Compound 359]
6.30 to 7.00	O=C(Cc1nccs1)Nc1nnc([C@H]2CCC[C@H](c3nnc(NC(=O)Cc4nccs4)s3)C2)s1 [Compound 61]
> 7.00	O=C(Nc1nnc([C@H]2CCC[C@H](c3nnc(NC(=O)[C@H](O)c4ccccc4)s3)C2)s1)[C@H](O)c1ccccc1 [Compound 370, (2R,2′R)—N,N′-(5,5′-((1S,3S)-cyclohexane-1,3-diyl)bis(1,3,4-thiadiazole-5,2-diyl))bis(2-hydroxy-2-phenylacetamide)]
> 7.00	O=C(Cc1nccs1)Nc1nnc([C@H]2CCC[C@H](c3nnc(NC(=O)Cc4nccs4)s3)C2)s1 [Compound 100]
> 7.00	O=C(Cc1ccncc1)Nc1nnc([C@H]2CCC[C@H](c3nnc(NC(=O)Cc4ccncc4)s3)C2)s1 [Compound 29, N,N′-(5,5′-((1S,3S)-cyclohexane-1,3-diyl)bis(1,3,4-thiadiazole-5,2-diyl))bis(2-(pyridin-4-yl)acetamide)]
> 7.00	O=C(Cc1cccc(N2CC(F)(F)C2)n1)Nc1nnc([C@H]2CC[C@H](c3nnc(NC(=O)[C@H](O)c4ccccc4)s3)C2)s1 [Compound 378, (R)—N-(5-((1S,3S)-3-(5-(2-(6-(3,3-difluoroazetidin-1-yl)pyridin-2-yl)acetamido)-1,3,4-thiadiazol-2-yl)cyclopentyl)-1,3,4-thiadiazol-2-yl)-2-hydroxy-2-phenylacetamide]
> 7.00	N#Cc1cccnc1CC(=O)Nc1nnc([C@H]2CCC[C@H](c3nnc(NC(=O)Cc4ncccc4C#N)s3)C2)s1 (relative stereo) [Compound 113, N,N′-(5,5′-(trans-cyclohexane-1,3-diyl)bis(1,3,4-thiadiazole-5,2-diyl))bis(2-(3-cyanopyridin-2-yl)acetamide)]
6.00 to 6.30	O=C(Cc1ccccn1)Nc1nnc(CC2CCC(Cc3nnc(NC(=O)Cc4ccccn4)s3)CC2)s1 [Compound 2, N,N′-(5,5′-((1R,4R)-cyclohexane-1,4-diylbis(methylene)bis(1,3,4-thiadiazole-5,2-diyl))bis(2-(pyridin-2-yl)acetamide)]
> 7.00	O=C(Nc1nnc([C@H]2CCC[C@H](c3nnc(NC(=O)C(CO)c4ccccc4)s3)C2)s1)C(CO)c1ccccc1 (stereo partly drawn) [Compound 380, N,N′-(5,5′-((1S,3S)-cyclohexane-1,3-diyl)bis(1,3,4-thiadiazole-5,2-diyl))bis(3-hydroxy-2-phenylpropanamide)]

SMILES	pIC50
O=C(Cc1ccc([N+](=O)[O-])cc1)Nc1nnc([C@H]2CCC[C@H](c3nnc(NC(=O)Cc4ccc([N+](=O)[O-])cc4)s3)C2)s1 [Compound 64, N,N′-(5,5′-((1S,3S)-cyclohexane-1,3-diyl)bis(1,3,4-thiadiazole-5,2-diyl))bis(2-(4-nitrophenyl)acetamide)]	5.70 to 6.00
O=C(Cc1cccc([N+](=O)[O-])c1)Nc1nnc([C@H]2CCC[C@H](c3nnc(NC(=O)Cc4cccc([N+](=O)[O-])c4)s3)C2)s1 [Compound 69, N,N′-(5,5′-((1S,3S)-cyclohexane-1,3-diyl)bis(1,3,4-thiadiazole-5,2-diyl))bis(2-(3-nitrophenyl)acetamide)]	> 7.00
